Measured values published in ChEMBL document CHEMBL1157234, “Isoflavonoids with antiestrogenic activity from Millettia pachycarpa” (J Nat Prod, 2006).

Molecular target: T1, Estrogen receptor (Homo sapiens, UniProt P03372)
T1 sequence (P03372 whole entry): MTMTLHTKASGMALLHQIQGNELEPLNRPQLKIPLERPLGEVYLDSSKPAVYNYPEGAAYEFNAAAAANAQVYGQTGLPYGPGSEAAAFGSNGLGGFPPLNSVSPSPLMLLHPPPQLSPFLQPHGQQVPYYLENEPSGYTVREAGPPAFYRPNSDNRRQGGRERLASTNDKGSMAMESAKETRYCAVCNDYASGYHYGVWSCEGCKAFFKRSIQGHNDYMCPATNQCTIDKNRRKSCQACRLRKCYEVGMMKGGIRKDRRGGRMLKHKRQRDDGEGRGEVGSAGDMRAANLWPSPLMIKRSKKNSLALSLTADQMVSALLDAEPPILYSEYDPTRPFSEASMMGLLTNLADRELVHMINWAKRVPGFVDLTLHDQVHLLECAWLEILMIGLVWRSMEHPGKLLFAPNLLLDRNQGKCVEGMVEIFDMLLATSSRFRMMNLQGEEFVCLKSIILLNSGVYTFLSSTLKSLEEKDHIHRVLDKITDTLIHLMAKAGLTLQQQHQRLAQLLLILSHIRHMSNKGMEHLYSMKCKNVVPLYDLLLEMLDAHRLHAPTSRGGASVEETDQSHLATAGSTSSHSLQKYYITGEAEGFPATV
Test: Antiestrogenic activity at estrogen receptor alpha expressed in yeast cells assessed as inhibition of 17-beta-estradiol-induced beta-galactosidase activity by two hybrid assay
Format: cell-based

Row | IC50 [µM] | SMILES
1 | 13 | CC(C)=CCc1c2c(c3occ(-c4ccc(O)c(O)c4)c(=O)c3c1O)CC(C(C)(C)O)O2 (racemic) [(+/-)-FUROWANIN B]
2 | 29 | C=C(C)C(O)Cc1c(O)c(CC=C(C)C)c2occ(-c3ccc(O)c(O)c3)c(=O)c2c1O (racemic) [MILLEWANIN G]
3 | 18 | C=C(C)C(O)Cc1c(O)c(CC=C(C)C)c(O)c2c(=O)c(-c3ccc(O)c(O)c3)coc12 (racemic)
